Assay results taken from US20220249484A1, “METHODS FOR PREDICTING RESPONSIVENESS OF CANCER TO FERROPTOSIS-INDUCING THERAPIES” (Memorial Sloan Kettering Cancer Center, priority 2019, published 2022).

What was measured:
NF639 cells [1] = assay: Expression of EMT-related genes by qPCR after TGF-β; type: cell-based, mouse; conditions: various concentrations of TGF-β, 48 h
Method: RNA extraction and qRT-PCR. RNA was extracted using the TRIzol reagent (Invitrogen). 20% chloroform was added to each sample, vortexed briefly, and incubated at room temperature for 15 min. Samples were then centrifuged at high speed at 4° C. for 15 min. The aqueous phase was moved to a new tube and an equal volume of isopropanol was added. Samples were incubated at room temperature for 10 min, followed by centrifugation at high speed at 4° C. for 10 min. Pellets were washed in 95% ethanol, dried, and resuspended in nuclease-free water. cDNA was synthesized using iScript™ cDNA Synthesis Kit according to the manufacturer's instructions (Bio-Rad). qRT-PCR was performed with IQ™ SYBR® Green Supermix (Bio-Rad) in a CFX Connect Real-Time PCR Detection System (Bio-Rad).
The potential link between epithelial-mesenchymal transition (EMT) and ferroptosis was examined using cells generated from mammary tumors of MMTV-neu mice. NF639 cells, derived from mouse mammary tumors containing MMTV-neu, were treated with various concentrations of TGF-β for 48 h to induce EMT. TGF-β can enhance EMT in cells bearing overactive HER2/neu signaling. Expression of a panel of EMT-related genes was assayed by qPCR as indicated.

NF639 cells [2] = assay: Cystine deprivation-induced ferroptosis after TGF-β; type: cell-based, mouse; conditions: 6 ng/μL TGF-β 48 h; 3.2×10^5 cells/3.5 cm^2 well; cystine-free 12 h; untreated cells highly resistant
Method: To determine the effect of TGF-β on cystine deprivation induced ferroptosis, NF639 cells were treated with or without 6 ng/μL TGF-β for 48 h, at which point they were plated at low density (0.8 cells×10^5/3.5 cm^2 well), grown overnight, and treated with media containing or lacking cystine, or lacking cystine with 1 μM ferrostatin-1 for 12 h. NF639 cells were also plated at a high density of 3.2×10^5 cells/3.5 cm^2 well, grown overnight and treated with media containing or lacking cystine, or lacking cystine with 1 μM ferrostatin-1 for 12 h. Cell death was measured by Sytox green staining coupled with flow cytometry.

HCT116 cells [3] = assay: Cell density-dependent induction of ferroptosis in HCT116 cells (cell death and lipid ROS by flow cytometry); type: cell-based, human; conditions: 5 μM RSL3; different cell density; cell death 24 h, lipid ROS 16 h
Method: Induction and inhibition of ferroptosis. To induce ferroptosis, cells with different density were seeded in 6-well plates. For cystine-starvation experiments, cells were washed with PBS twice and then cultured in cystine-free medium in the presence of 10% (v/v) dialyzed FBS for the indicated time. The ferroptosis inducing compounds erastin and RSL3 and the ferroptosis inhibitor Ferrostatin-1 were purchased from Sigma-Aldrich (St. Louis, Mo., USA).
Measurement of cell death, cell viability and lipid peroxidation. Cell death was analyzed by propidium iodide (Invitrogen, Waltham, Mass., USA) or SYTOX Green (Invitrogen) staining followed by microscopy or flow cytometry. For 3D spheroids, cell viability was determined using the CellTiter-Glo® 3D Cell Viability Assay (Promega, Madison, Wis., USA) according to the manufacturer's instructions. Viability was calculated by normalizing ATP levels to spheroids treated with normal full media. […]
To test erastin-induced ferroptosis, HCT116 cells with different cell density were treated with 30 μM erastin and quantification of cell death by propidium iodide (PI) staining followed by flow cytometry (after 30 h of erastin treatment). Lipid ROS production was assessed by C11-BODIPY staining followed by flow cytometry (after 24 h of erastin treatment). […]

MEFs = assay: Ferroptosis and lipid ROS in MEFs; type: cell-based, mouse
Method: (§1) Measurement of cell death, cell viability and lipid peroxidation. Cell death was analyzed by propidium iodide (Invitrogen, Waltham, Mass., USA) or SYTOX Green (Invitrogen) staining followed by microscopy or flow cytometry. For 3D spheroids, cell viability was determined using the CellTiter-Glo® 3D Cell Viability Assay (Promega, Madison, Wis., USA) according to the manufacturer's instructions. Viability was calculated by normalizing ATP levels to spheroids treated with normal full media. To analyze lipid peroxidation, cells were stained with 5 μM BODIPY-C11 (Invitrogen) for 30 minutes at 37° C. followed by flow cytometric analysis.
Merlin-regulated ferroptosis in cell density dependent manner was also observed in MEFs, which are not of epithelial origin. Cell death of MEFs with different cell density induced by cystine starvation for 12 h was measured by PI staining (FIG. 15A), and flow cytometry (FIG. 15B). The effect of cystine starvation on lipid ROS production in MEFs cells with different cell density (6 h treatment) is also shown in FIG. 15B. […] As shown in FIGS. 15A-15D, increased cell density mitigated both cell death and lipid ROS generation induced by cystine starvation, erastin and RSL3 in MEFs.
MEFs also regulated the activity of YAP at high density in a Merlin-dependent manner. MEFs seeded at increasing density were probed for YAP localization by Immunofluorescence (FIG. 15E). The effect of Merlin was assessed by infecting MEFs with shMerlin lentivirus and selected with puromycin. […] As shown in FIGS. 15E-15F, with increasing cell confluence, there was an increase of YAP nuclear exclusion in MEFs, which was attenuated by Merlin knockdown.

HCT116 cells [4] = assay: RSL3-induced cell death in HCT116 cells overexpressing TFRC and/or ACSL4; type: cell-based, human; conditions: 2 μM RSL3, 24 h; SYTOX Green
Method: To test whether TFRC and ACSL4 can directly enhance ferroptosis in confluent cells, TFRC and ACSL4 separately or in combination were overexpressed. HCT116 cells were transduced with retroviral particles containing mCherry-ACSL4, transfected with TFRC, or both. Expression was assayed by Western blot. Two bands were detected for mCherry-ACSL4, representing the full-length mCherry-ACSL4 and that with mCherry tag truncated (FIG. 17A). Additionally, cells were plated at the indicated density and treated with 2 μM RSL3 for 24 h. Cell death was measured by SYTOX Green staining coupled with flow cytometry.

HCT116 cells [5] = assay: Ferroptosis in HCT116 cells expressing PAK-CAAX; type: cell-based, human; conditions: constitutively active PAK-CAAX versus inactive PAK^K298R-CAAX
MSTO-211H cells = assay: Ferroptosis in confluent MSTO-211H cells (shMerlin, shNcad); type: cell-based, human
Method: as §1
To confirm the ferroptosis-regulating role of Merlin in mesothelioma cells, the effect of Merlin knockdown on ferroptosis sensitivity was assessed. MSTO-211H cells were infected with lentiviruses expressing shMerlin. RNAi knockdown efficiency was confirmed by Western blot (FIG. 3F). Then, shNT or shMerlin MSTO-211H cells were cultured to high confluence, at which point they were treated with media containing or lacking cystine, with or without Fer-1 for 24 h. Cell death was measured by SYTOX Green staining followed by flow cytometry (FIG. 3G). To measure lipid reactive species, shNT or shMerlin MSTO-211H cells were treated for 18 h, at which point they were stained with 2 μM C11-BODIPY for lipid ROS measurement (FIG. 311). Confluent MSTO-211H cells expressing shNT or shMerlin were also treated with 1 μM RSL3 with or without […] Fer-1. Cell death (left, 24 h after treatment) and lipid ROS production (right, 16 h) were measured (FIG. 13B).
Therefore, the cell density dependence of ferroptosis is not limited to epithelial cells expressing Ecad. […] To assess the expression of N-cadherin in MSTO-211H mesothelioma cells, the cells were cultivated at different cell densities, and the levels of Ncad, p-YAP and total YAP were analyzed by Western blot. […] Therefore, the potential role of Ncad in ferroptosis was tested. MSTO-211H cells were infected with lentiviruses expressing Ncad shRNA (shNcad) and selected with puromycin.

HCT116 cells [6] = assay: Ferroptosis in confluent HCT116 cells expressing shEcad, shMerlin or shLats1/2; type: cell-based, human; conditions: cell death 18 h, lipid ROS 14 h; versus shNT
Method: as §1
The involvement of the Hippo signaling in the regulation of ferroptosis by cell-cell contact was also assessed. Cells depleted of Ecad, Merlin, or Lats were generated using shRNA technology. HCT116 cells were infected by lentiviruses expressing shRNA sequences targeting Ecad (shEcad), Merlin (shMerlin), or Lats1/2 (shLats1/2), as indicated. Knockdown efficiency was confirmed by Western blot (FIG. 2B). […] Cell death was measured at 30 h using SYTOX Green staining followed by flow cytometry. Lipid ROS was measured at 24 hours using C11-BODIPY staining coupled with flow cytometry. […] Cell death was measured at 18 h and lipid ROS was measured at 14 h (FIG. 11A).

TGF-β
expression of EMT-related genes (NF639 cells [1]): upregulated the expression of multiple EMT-related genes
cell death under cystine starvation at high cell density (NF639 cells [2]): died under cystine starvation at high cell density

COC(=O)c1ccc([C@@H]2c3[nH]c4ccccc4c3C[C@@H](C(=O)OC)N2C(=O)CCl)cc1 [RSL3]
RSL3-induced ferroptosis (cell death, lipid ROS) (HCT116 cells [3]): induces HCT116 human colon cancer cells to undergo ferroptosis in a cell density-dependent manner
RSL3-induced ferroptosis and lipid ROS in MEFs at different densities (MEFs; 1 μM RSL3, ferroptosis 8 h, lipid ROS 5 h): ferroptosis (8 h) and lipid ROS production (5 h) was also observed
RSL3-induced cell death and lipid ROS in confluent Merlin RNAi MEFs (MEFs; RSL3 1 μM, 8 h): increased cell death and lipid ROS production
RSL3-induced cell death, confluent cells co-expressing TFRC and ACSL4 (HCT116 cells [4]): further enhanced cell death
RSL3-induced cell death, confluent cells expressing either TFRC or ACSL4 (HCT116 cells [4]): partially sensitized to ferroptosis
RSL3-induced ferroptosis in PAK-CAAX expressing cells (HCT116 cells [5]): enhanced RSL3-induced ferroptosis
sensitivity of confluent shNcad cells to RSL3 (cell death) (MSTO-211H cells; 1 μM RSL3, 16 h): sensitized these cells to ferroptosis
sensitivity of confluent shMerlin cells to RSL3 (cell death, lipid ROS) (MSTO-211H cells; 1 μM RSL3, cell death 24 h, lipid ROS 16 h): became sensitive
RSL3-induced cell death and lipid ROS after knockdown of Ecad, Merlin, Lats1/2 (HCT116 cells [6]): sensitized HCT116 cells to ferroptosis and increased lipid ROS accumulation
